Experimental data as given in patent EP2966448B1, “METHOD FOR THE PREDICTION OR PROGNOSIS OF THE RESPONSE OF A HUMAN SUBJECT SUFFERING FROM CANCER TO TREATMENT WITH AN ANTAGONIST OF THE NK1 RECEPTOR” (priority 2013, dated 2014).
Like-named read-outs stand apart in the source and are kept apart here.

Tests used:
[1] = system: Gastric carcinoma; experiment: Inhibition of primary tumor cell cultures (48 hours) vs NK1 receptor immunostaining (Example 1); format: cell-based; settings: Homo sapiens, 1 micromolar, read-out: Percentage of inhibition of cell cultures
Description: (§1) Cell cultures. To obtain tumor cells from human primary tumors we used the method described in De Bari et al. (De Bari et al. 2001). Briefly, small pieces of the tumors were digested into a hyaluronidase solution (Sigma-Aldrich, USA) at a concentration of 1 mg/ml during 15 minutes at 37°C, and then they were treated with 6 mg/ml of collagenase type IV (Invitrogen) during 2 hours at 37°C. Consecutively, cells were washed, and resuspended in the DMEM culture medium with high concentration of glucose (Dulbecco's Modified Eagle's Medium, Invitrogen) supplemented with 1% of antibiotics-antimycotics (Invitrogen) and with 1% of sodium pyruvate (Invitrogen), and the cells were seeded in culture slides at a concentration of 10.000 cells per square centimeter. When cells reached confluence, the adherent cells were separated using sterile trypsin at 0,5% (Invitrogen) and they were used among passages 3 and 9. For the assays shown next, tumor cells were seeded on slides at a concentration of 25.000 cells per well. A total of 6 wells containing the tumor cells were used as survival control. […] All the cultures were kept during 48 hours and later on recollected for their analysis.
(§2) Immunohistochemistry techniques. The presence of NK1 receptors was also analyzed using immunohistochemistry techniques. Briefly, a sample of each of the cultures of the cell lines used in the present invention, was centrifuged (5 minutes at 1.500 rpm) and the pellet obtained was dehydrated using increasing concentrations of ethanol and, finally, xylol. Then, said dehydrated samples were embedded in paraffin, creating a block of cells. Such paraffin blocks were cut with a microtome at 5 microns thickness, and were placed on microscope slides adequate to perform immunohistochemistry techniques. Consecutively, they were de-paraffinized by immersing them in xylol, to be finally hydrated using a solution containing decreasing concentrations of ethanol, and finally submerged them into water. […] After this, the samples were left to cool down at room temperature for 10 minutes. The endogenous peroxidase activity was blocked with 3% peroxide of hydrogen for 30 minutes at room temperature. After washing the samples with 0.05 M of Tris buffer, they were incubated with 10% non-immune pork serum at for 30 minutes at room temperature. To analyze the expression of NK1 receptors, the cellular samples were incubated in the presence of anti-NK1 antibodies (S8305, Sigma-Aldrich) diluted 1:1000, overnight at 4°C. Afterwards, the samples were washed in Tris buffer 0.05 M at room temperature. The next step was the addition of Envision System-HRP (Dako) reagents for 30 minutes at room temperature. Then, the samples were washed again in Tris buffer 0.05 M and the immunoreactivity was visualized through light microscopy with a chromogenic solution containing 3,3'-Diaminobenzidine (DAB+; Dako, USA). To differentiate the cell nuclei, they were slightly stained with hematoxylin. As negative control, it was used samples not incubated with the primary antibody anti-NK1, which was replaced by non-immune serum. All the samples were evaluated.
(§3) To value the immunostaining in each of the cases six cuts were performed to be analyzed by the immunohistochemistry technique. In each of the six cuts, it was counted cells in 20 fields (magnification 400x) using an Olympus microscope (model CX31). In each field it was counted the total number of cells and the number of cells presenting immunostaining, calculating afterwards the percentage of cells which presented immunostaining.

[2] = system: Colon carcinoma; experiment: as above; format: cell-based; settings: Homo sapiens, 1 micromolar, read-out: Percentage of inhibition of cell cultures
Description: as §1, §2, §3

[3] = system: Breast carcinoma; experiment: as above; format: cell-based; settings: Homo sapiens, 1 micromolar, read-out: Percentage of inhibition of cell cultures
Description: as §1, §2, §3

[4] = system: Ovarian carcinoma; experiment: as above; format: cell-based; settings: Homo sapiens, 1 micromolar, read-out: Percentage of inhibition of cell cultures
Description: as §1, §2, §3

[5] = system: Thyroid carcinoma (papillary type); experiment: as above; format: cell-based; settings: Homo sapiens, 1 micromolar, read-out: Percentage of inhibition of cell cultures
Description: as §1, §2, §3

[6] = system: Non Hodgkin Lymphoma B; experiment: as above; format: cell-based; settings: Homo sapiens, 1 micromolar, read-out: Percentage of inhibition of cell cultures
Description: as §1, §2, §3

[7] = system: Burkitt Lymphoma; experiment: as above; format: cell-based; settings: Homo sapiens, 1 micromolar, read-out: Percentage of inhibition of cell cultures
Description: as §1, §2, §3

[8] = system: Hodgkin lymphoma; experiment: as above; format: cell-based; settings: Homo sapiens, 1 micromolar, read-out: Percentage of inhibition of cell cultures
Description: as §1, §2, §3

[9] = system: Breast carcinoma (ductal adenocarcinoma); experiment: Inhibition of primary tumor cell cultures vs Kras mutation (Example 2); format: cell-based, human; settings: Breast carcinoma (ductal adenocarcinoma), 100 micromolar
Description: (§4) Cell cultures. […] Briefly, small pieces of the tumors were digested into a hyaluronidase solution (Sigma-Aldrich, USA) at a concentration of 1 mg/ml during 15 minutes at 37°C, and then they were treated with 6 mg/ml of collagenase type IV (Invitrogen) during 2 hours at 37°C. Consecutively, cells were washed, and resuspended in the DMEM culture medium with high concentration of glucose (Dulbecco's Modified Eagle's Medium, Invitrogen) supplemented with 1% of antibiotics-antimycotics (Invitrogen) and with 1% of sodium pyruvate (Invitrogen), and the cells were seeded in culture slides at a concentration of 10.000 cells per square centimeter. When cells reached confluence, the adherent cells were separated using sterile trypsin at 0,5% (Invitrogen) and they were used among passages 3 and 9. For the assays shown next, tumor cells were seeded on slides at a concentration of 25.000 cells per well. A total of 6 wells containing the tumor cells were used as survival control. […] All the cultures were kept during 48 hours and later on recollected for their analysis.
(§5) In each case the presence or not of mutations in K-ras gene was determined.
(§6) To determine the existence of mutations in the K-ras gene DNA from cancer tumor cells was extracted from samples obtained from the different cancer tumor cells, using DNA extraction kits from Takara (Madison, WI, US) or Ambion (Huntingdon, Cambridgeshire, United Kingdom), following the manufacturer's instructions, and as it has been previously published (Di Fiore F, et al. 2007). Consecutively it was analyzed by sequencing the exon 2 of the KRAS gene, , by means of PCR amplification from previously extracted cancer tumor DNA, using the following sense primer (SEQ ID NO. 15): 5'-[sequence]-3' and anti-sense primer (SEQ ID NO. 16): 5'-[sequence]-3'. After the purification using the Qiagen extraction kit, the PCR products were sequenced using the Big Dye Terminator Kit V3.1 (Applied Biosystems, Foster City, CA, U.S.) and an ABI Prism 377 or 3100 DNA sequencer (Applied Biosystems). The presence of a heterozygous mutation in the KRAS gene in cancer tumor cells of the cultures was defined as the appearance of a mutant peak of a height of at least a third of the wild type. All the sequence analysis were executed at least twice in two independent PCR.
(§7) The antibody against NK1 receptor (Table 16) was used at 1/50 concentration. The percentages of inhibition are expressed in percentage of variation in relation to control ± standard deviation.

[10] = system: Ovarian carcinoma (Adenocarcinoma); experiment: as above; format: cell-based, human; settings: Ovarian carcinoma (Adenocarcinoma), 100 micromolar
Description: as §4, §5, §6, §7

[11] = system: Endometrium carcinoma; experiment: as above; format: cell-based, human; settings: Endometrium carcinoma, 100 micromolar
Description: as §4, §5, §6, §7

[12] = system: Lung carcinoma (non small cell lung carcinoma); experiment: as above; format: cell-based, human; settings: Lung carcinoma (non small cell lung carcinoma), 100 micromolar
Description: (§8) To obtain tumor cells from human primary tumors we used the method described in De Bari et al. (De Bari et al. 2001). Briefly, small pieces of the tumors were digested into a hyaluronidase solution (Sigma-Aldrich, USA) at a concentration of 1 mg/ml during 15 minutes at 37°C, and then they were treated with 6 mg/ml of collagenase type IV (Invitrogen) during 2 hours at 37°C. Consecutively, cells were washed, and resuspended in the DMEM culture medium with high concentration of glucose (Dulbecco's Modified Eagle's Medium, Invitrogen) supplemented with 1% of antibiotics-antimycotics (Invitrogen) and with 1% of sodium pyruvate (Invitrogen), and the cells were seeded in culture slides at a concentration of 10.000 cells per square centimeter. When cells reached confluence, the adherent cells were separated using sterile trypsin at 0,5% (Invitrogen) and they were used among passages 3 and 9. For the assays shown next, tumor cells were seeded on slides at a concentration of 25.000 cells per well. A total of 6 wells containing the tumor cells were used as survival control. […] All the cultures were kept during 48 hours and later on recollected for their analysis.
as §5, §6, §7

[13] = system: Thyroid carcinoma (follicular carcinoma); experiment: as above; format: cell-based, human; settings: Thyroid carcinoma (follicular carcinoma), 100 micromolar
Description: as §8, §5, §6, §7

[14] = system: Prostate carcinoma; experiment: as above; format: cell-based, human; settings: Prostate carcinoma, 100 micromolar
Description: as §1, §5, §6
(§9) The percentages of inhibition are expressed in percentage of variation in relation to control ± standard deviation.

[15] = system: Glioma (astrocytoma); experiment: as above; format: cell-based, human; settings: Glioma (astrocytoma), 100 micromolar
Description: as §1, §5, §6, §7

[16] = system: Undifferentiated Pleomorphic Sarcoma (malignant fibrous histiocytoma grade 3); experiment: as above; format: cell-based, human; settings: Undifferentiated Pleomorphic Sarcoma (malignant fibrous histiocytoma grade 3), 100 micromolar
Description: as §1, §5, §6, §9

[17] = system: Melanoma (Nodular Melanoma); experiment: as above; format: cell-based, human; settings: Melanoma (Nodular Melanoma), 100 micromolar
Description: as §1, §5, §6, §9

[18] = system: Burkitt Lymphoma; experiment: as above; format: cell-based, human; settings: Burkitt Lymphoma, 100 micromolar
Description: as §1, §5, §6, §7

[19] = system: human primary tumor cells; experiment: Inhibition of primary tumor cell cultures vs absence or presence of ERK  protein (Example 3; tumor type per table line); format: cell-based; settings: 100 micromolar
Description: as §4
Consecutively, the cells were placed in cultures in the presence of several antagonists of the NK1 receptor.
In each case it was determined the presence or absence of the downstream effector in the MAP Kinases ERK pathway.
To determine the presence of the ERK protein, it was performed a Western Blot technique, using as primary antibody: Phospho-p44/42 MAPK (Erk1/2) (Thr202/Tyr204) (D13.14.4E) XP® Rabbit mAb (4370, Cell Signalling). To determine the presence of the MEK protein, it was performed the Western Blot technique, using as primary antibody Phospho-MEK1/2 (Ser217/221) (9121, Cell Signalling).
The antibody against NK1 receptor (Table 21) was used at 1/50 concentration. The percentages of inhibition are expressed in percentages of variation in relation to control ± standard deviation.

[20] = NK1 receptor immunostaining Group 1 (less than 20% of the cells)
[21] = NK1 receptor immunostaining Group 2 (20-80% of the cells)
[22] = NK1 receptor immunostaining Group 3 (more than 80% of the cells)
[23] = NK1 receptor immunostaining Intensity grade 1
[24] = NK1 receptor immunostaining Intensity grade 2
[25] = NK1 receptor immunostaining Intensity grade 3
[26] = Cases with Kras non-mutated (wild type)

Cc1cc(F)ccc1[C@H]1CNCCN1C(=O)N(C)[C@H](C)c1cc(C(F)(F)F)cc(C(F)(F)F)c1 [Vestipitant]
inhibition at 1 µM [1, 20]: 11 ± 3%
inhibition at 1 µM [1, 21]: 48 ± 3%
inhibition at 1 µM [1, 22]: 92 ± 3%
inhibition at 1 µM [1, 23]: 19 ± 4%
inhibition at 1 µM [1, 24]: 49 ± 4%
inhibition at 1 µM [1, 25]: 92 ± 4%
inhibition at 1 µM [2, 20]: 12 ± 4%
inhibition at 1 µM [2, 21]: 45 ± 3%
inhibition at 1 µM [2, 22]: 91 ± 2%
inhibition at 1 µM [2, 23]: 18 ± 5%
inhibition at 1 µM [2, 24]: 46 ± 4%
inhibition at 1 µM [2, 25]: 91 ± 5%
inhibition at 1 µM [3, 20]: 12 ± 3%
inhibition at 1 µM [3, 21]: 46 ± 3%
inhibition at 1 µM [3, 22]: 93 ± 4%
inhibition at 1 µM [3, 23]: 19 ± 4%
inhibition at 1 µM [3, 24]: 45 ± 3%
inhibition at 1 µM [3, 25]: 93 ± 3%
inhibition at 1 µM [4, 20]: 14 ± 4%
inhibition at 1 µM [4, 21]: 47 ± 4%
inhibition at 1 µM [4, 22]: 95 ± 5%
inhibition at 1 µM [4, 23]: 15 ± 3%
inhibition at 1 µM [4, 24]: 46 ± 2%
inhibition at 1 µM [4, 25]: 95 ± 4%
inhibition at 1 µM [5, 20]: 15 ± 3%
inhibition at 1 µM [5, 21]: 47 ± 5%
inhibition at 1 µM [5, 22]: 96 ± 4%
inhibition at 1 µM [5, 23]: 16 ± 2%
inhibition at 1 µM [5, 24]: 47 ± 5%
inhibition at 1 µM [5, 25]: 96 ± 5%
inhibition at 1 µM [6, 20]: 14 ± 3%
inhibition at 1 µM [6, 21]: 45 ± 5%
inhibition at 1 µM [6, 22]: 93 ± 5%
inhibition at 1 µM [6, 23]: 16 ± 4%
inhibition at 1 µM [6, 24]: 47 ± 5%
inhibition at 1 µM [6, 25]: 93 ± 4%
inhibition at 1 µM [7, 20]: 12 ± 3%
inhibition at 1 µM [7, 21]: 45 ± 3%
inhibition at 1 µM [7, 22]: 92 ± 4%
inhibition at 1 µM [7, 23]: 15 ± 3%
inhibition at 1 µM [7, 24]: 47 ± 5%
inhibition at 1 µM [7, 25]: 92 ± 6%
inhibition at 1 µM [8, 20]: 14 ± 3%
inhibition at 1 µM [8, 21]: 46 ± 3%
inhibition at 1 µM [8, 22]: 92 ± 5%
inhibition at 1 µM [8, 23]: 16 ± 4%
inhibition at 1 µM [8, 24]: 48 ± 3%
inhibition at 1 µM [8, 25]: 92 ± 4%
Percentage of inhibition of cell cultures ([9]; Cases with Kras mutated): 26±4 percentage
Percentage of inhibition of cell cultures [9, 26]: 97±5 percentage
Percentage of inhibition of cell cultures ([10]; Cases with Kras mutated): 27±5 percentage
Percentage of inhibition of cell cultures [10, 26]: 96±6 percentage
Percentage of inhibition of cell cultures ([11]; Cases with Kras mutated): 24±6 percentage
Percentage of inhibition of cell cultures [11, 26]: 95±4 percentage
Percentage of inhibition of cell cultures ([12]; Cases with Kras mutated): 24±5 percentage
Percentage of inhibition of cell cultures [12, 26]: 96±6 percentage
Percentage of inhibition of cell cultures ([13]; Cases with Kras mutated): 25±3 percentage
Percentage of inhibition of cell cultures [13, 26]: 97±4 percentage
Percentage of inhibition of cell cultures ([14]; Cases with Kras mutated): 24±4 percentage
Percentage of inhibition of cell cultures [14, 26]: 96±4 percentage
Percentage of inhibition of cell cultures ([15]; Cases with Kras mutated): 25±3 percentage
Percentage of inhibition of cell cultures [15, 26]: 97±5 percentage
Percentage of inhibition of cell cultures ([16]; Cases with Kras mutated): 26±4 percentage
Percentage of inhibition of cell cultures [16, 26]: 95±6 percentage
Percentage of inhibition of cell cultures ([17]; Cases with Kras mutated): 23±5 percentage
Percentage of inhibition of cell cultures [17, 26]: 96±5 percentage
Percentage of inhibition of cell cultures ([18]; Cases with Kras mutated): 24±3 percentage
Percentage of inhibition of cell cultures [18, 26]: 95±3 percentage
Percentage of inhibition of cell cultures ([19]; Breast carcinoma (ductal adenocarcinoma), cases with presence of ERK): 94±3 percentage
Percentage of inhibition of cell cultures ([19]; Breast carcinoma (ductal adenocarcinoma), cases without presence of ERK): 26±4 percentage
Percentage of inhibition of cell cultures ([19]; Burkitt Lymphoma, cases with presence of ERK): 93±5 percentage
Percentage of inhibition of cell cultures ([19]; Burkitt Lymphoma, cases without presence of ERK): 26±4 percentage
Percentage of inhibition of cell cultures ([19]; Carcinoma of the uterine cervix (Squamous cell carcinoma), cases with presence of ERK): 94±4 percentage
Percentage of inhibition of cell cultures ([19]; Carcinoma of the uterine cervix (Squamous cell carcinoma), cases without presence of ERK): 29±3 percentage
Percentage of inhibition of cell cultures ([19]; Colon carcinoma (Adenocarcinoma), cases with presence of ERK): 94±3 percentage
